This passage reports inhibition results from patent US8940774B2, “Tris-Quaternary Ammonium Salts and Methods for Modulating Neuronal Nicotinic Acetylcholine Receptors” (University of Kentucky Research Foundation, priority 2005, dated 2015).

Test [1] addresses T1, Rat Striatal Nicotinic Receptors (Rattus norvegicus, UniProt P09483+P12390).
T1 construct: from tissue; host or cells: rat striatal membranes
Description: Inhibition of [3H]Nicotine (NIC) binding assay, rat striatal membranes. Conditions: % inhibition at 100 nM concentration of analog, 3 nM [3H]NIC. Here is the method:
Striata from two rats were dissected, pooled, and homogenized with a Tekmar polytron in 10 vol of ice-cold modified Krebs-HEPES buffer (20 mM HEPES, 118 mM NaCl, 4.8 mM, KCl, 2.5 mM CaCl2, 1.2 mM MgSO4, adjusted to pH 7.5). The homogenates were incubated at 37° C. for 5 minutes and centrifuged at 15,000 g for 20 minutes. The pellet was resuspended in 10 volumes of ice-cold MilliQ water, incubated for 5 minutes at 37° C., and centrifuged at 15,000 g for 20 minutes. The second pellet was then resuspended in 10 volumes of fresh ice-cold 10% Krebs-HEPES buffer, incubated at 37° C., and centrifuged at 15,000 g for 20 minutes. The latter sequence of resuspension, incubation and centrifugation was repeated. The pellet was frozen under fresh 10% Krebs-HEPES buffer and stored at −40° C. until assay. Upon assay, the pellet was resuspended in Krebs-HEPES buffer, incubated at 37° C. for 5 minutes, and centrifuged at 15,000 g for 20 minutes. The final pellet was resuspended in 3.6 mL ice-cold MilliQ water which provided for approximately 200 μg protein per 100 μL aliquot. Competition assays were performed in duplicate in a final volume of 200 μL Krebs-HEPES buffer containing […] Tris buffer (pH 7.5 at 4° C.). Reactions were initiated by addition of 100 μL of membrane suspension to 3 nM [^3H]NIC (50 μL) and one of at least nine concentrations of analog (50 μL). After a 90 minute incubation at 4° C., reactions were terminated by dilution of the samples with 3 mL of ice-cold Krebs-HEPES buffer followed immediately by filtration through Whatman GF/B glass fiber filters (presoaked in 0.5% polyethyleneimine) using a Brandel Cell Harvester. Filters were rinsed three times with 3 mL of ice-cold Krebs-HEPES buffer, transferred to scintillation vials, and 5 mL scintillation cocktail (Research Products international Corp., Mt. Prospect, Ill.) added. Nonspecific binding determined in triplicate was defined as binding in the presence of 10 μM NIC. Binding parameters were determined using the weighted, least squares non-linear regression. The tris-quaternary ammonium salts were evaluated for their ability to displace [^3H]NIC binding from rat striatal membranes.
(§1) Data are % inhibition at 100 nM concentration of analog for at least 1-3 independent experiments. Specific binding in the [^3H]NIC binding assay is calculated at the difference between the total binding of [^3H]NIC and nonspecific binding in the presence of 10 μM cold nicotine. Specific binding for the [^3H]MLA binding assay is calculated as the difference between the total binding of 2.5 nM [^3H]MLA to the receptors alone and its nonspecific binding in the presence of 1 μM cold MLA. Analog-induced inhibition of nicotine-evoked [^3H]DA release is calculated as a percent of that in the absence of analog.

The target in test [2] is T2, α7-type neuronal nicotinic acetylcholine receptors (Rattus norvegicus, UniProt Q05941).
T2 construct: from tissue; host or cells: rat brain membranes (whole brain without cortex, striatum and cerebellum)
Description: Inhibition of [3H]Methyllycaconitine (MLA) binding assay, rat brain membranes. Conditions: % inhibition at 100 nM concentration of analog; rat brain membranes; 2.5 nM [3H]MLA; read-out: Inhibition of [3H]MLA binding. As for the experimental part: Rat brain was dissected into the whole brain tissue without cortex, striatum and cerebellum and was frozen in liquid nitrogen and stored at −70° C. until use. The brain tissue was homogenized with a Tekmar Polytron (setting 40) in 20 volumes of ice-cold hypotonic buffer (2 mM HEPES, 14.4 mM NaCl, 0.15 mM KCl, 0.2 mM CaCl2 and 0.1 mM MgSO4, pH=7.5). The homogenate was incubated at 37° C. for 10 minutes and centrifuged at 25,000 g for 15 minutes at […] The pellet was washed 3 times more by resuspension in 20 volumes of the same buffer and centrifugation at the above parameters. The final pellet was stored at −20° C. under 4.6 mL of the incubation buffer and was suspended just before the incubation with radioligand.
The binding of [^3H]MLA to probe α7-type neuronal nicotinic acetylcholine receptors was measured using a modification of the method of Davies at al., “Characterisation of the binding of [^3H]methyllycaconitine (MLA): a radioligand for labelling α7-type neuronal nicotinic acetylcholine receptors,” Neuropharmacology, 38, 679-690 (1999). [^3H]MLA (25.4 Ci/mmol) was purchased from Tocris Cookson Ltd., Bristol, U.K. Binding was performed in duplicate, in a final volume of 250 μL of the incubation medium, containing 20 mM HEPES, 144 mM NaCl, 1.5 mM KCl, 2 mM CaCl2, 1 mM MgSO4 and 0.05% BSA, pH=7.5. Reaction was initiated by the addition of 100 μL of membrane suspension to the samples containing a desired concentration of test compounds and […] [^3H]MLA (final concentration) and incubated for 2 hours it room temperature. Total binding was measured in the absence of unlabelled ligand, and nonspecific binding was determined by the presence of 1 μM unlabelled MLA. The binding reaction was terminated by dilution of samples with 3 mL of ice-cold incubation buffer followed by immediate filtration through glass fiber filters (S&S, grade #32, presoaked in 0.5% polyethylenimine) using a Brandel harvester system. Filters were rinsed three times with 3 mL of ice-cold buffer, transferred to scintillation vials and 4 mL of scintillation cocktail was added. Protein was measured using the Bradford dye-binding procedure with bovine serum albumin as the standard.
The tris-quaternary ammonium salts were evaluated for their ability to displace [^3H]MLA binding from rat brain membranes.
as §1

T1 sequence (P09483 31-630): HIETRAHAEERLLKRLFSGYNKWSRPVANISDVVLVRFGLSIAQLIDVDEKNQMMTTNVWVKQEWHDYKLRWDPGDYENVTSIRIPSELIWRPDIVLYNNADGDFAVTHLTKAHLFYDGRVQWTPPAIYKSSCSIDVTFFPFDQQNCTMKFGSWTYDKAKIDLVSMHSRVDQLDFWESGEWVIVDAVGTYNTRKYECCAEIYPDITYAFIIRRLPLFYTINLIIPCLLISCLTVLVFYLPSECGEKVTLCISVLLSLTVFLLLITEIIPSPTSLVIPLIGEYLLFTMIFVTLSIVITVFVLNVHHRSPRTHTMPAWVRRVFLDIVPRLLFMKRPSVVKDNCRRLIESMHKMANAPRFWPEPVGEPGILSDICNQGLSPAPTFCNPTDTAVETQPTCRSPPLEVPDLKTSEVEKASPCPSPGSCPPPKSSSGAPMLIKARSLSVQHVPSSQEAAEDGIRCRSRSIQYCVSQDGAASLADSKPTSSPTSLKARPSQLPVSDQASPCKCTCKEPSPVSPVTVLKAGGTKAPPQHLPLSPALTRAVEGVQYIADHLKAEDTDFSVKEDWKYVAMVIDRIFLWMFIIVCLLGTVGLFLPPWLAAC
T1 sequence (P12390 25-500): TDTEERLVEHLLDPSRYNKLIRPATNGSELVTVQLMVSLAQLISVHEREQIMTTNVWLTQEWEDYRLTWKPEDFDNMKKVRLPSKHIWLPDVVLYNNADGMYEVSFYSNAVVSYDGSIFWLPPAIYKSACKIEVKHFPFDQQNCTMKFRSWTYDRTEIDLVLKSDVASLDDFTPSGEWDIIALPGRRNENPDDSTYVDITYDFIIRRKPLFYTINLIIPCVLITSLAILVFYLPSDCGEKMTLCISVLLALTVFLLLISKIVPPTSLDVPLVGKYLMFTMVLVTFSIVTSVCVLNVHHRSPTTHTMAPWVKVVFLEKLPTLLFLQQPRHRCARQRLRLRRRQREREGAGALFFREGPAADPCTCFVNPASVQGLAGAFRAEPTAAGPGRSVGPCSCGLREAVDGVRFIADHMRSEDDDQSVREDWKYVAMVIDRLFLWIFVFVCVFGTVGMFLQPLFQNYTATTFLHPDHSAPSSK
T2 sequence (Q05941 23-502): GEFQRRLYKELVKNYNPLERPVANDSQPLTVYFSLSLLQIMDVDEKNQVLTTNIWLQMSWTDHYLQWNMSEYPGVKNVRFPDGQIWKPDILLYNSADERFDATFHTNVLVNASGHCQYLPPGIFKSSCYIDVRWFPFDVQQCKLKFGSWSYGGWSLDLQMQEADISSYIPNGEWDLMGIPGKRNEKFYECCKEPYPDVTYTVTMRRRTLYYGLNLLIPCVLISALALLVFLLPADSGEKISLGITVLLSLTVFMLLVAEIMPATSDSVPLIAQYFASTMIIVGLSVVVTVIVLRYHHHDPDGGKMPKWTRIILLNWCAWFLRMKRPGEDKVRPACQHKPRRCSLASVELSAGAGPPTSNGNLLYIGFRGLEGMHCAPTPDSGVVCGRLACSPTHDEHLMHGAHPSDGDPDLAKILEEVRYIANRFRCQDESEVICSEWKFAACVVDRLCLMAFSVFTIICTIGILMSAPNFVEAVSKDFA

With `CCCCc1ccc[n+](CCCC#Cc2cc(C#CCCC[n+]3cccc(CCCC)c3)cc(C#CCCC[n+]3cccc(CCCC)c3)c2)c1` [GZ551A, 1,3,5-tris-[5-(3-butyl-pyridinium)-pent-1-ynyl]-benzene tribromide], the figures for the inhibition at 0.1 µM in test [1] and in test [2] were 6.8 ± 2% and 30 ± 2%, respectively.
For `CN1CCC[C@H]1c1ccc[n+](CCCC#Cc2cc(C#CCCC[n+]3cccc([C@@H]4CCCN4C)c3)cc(C#CCCC[n+]3cccc([C@@H]4CCCN4C)c3)c2)c1` [GZ551B, 1,3,5-tris-{5-[3-(1-methyl-2-S-pyrrolidinyl)pyridinium]-pent-1-ynyl}-benzene tribromide] the same measures were 44 ± 3.1% and 4.2 ± 2.2%.
For `CN1CCC[C@H]1c1ccc[n+](CCCCCc2cc(CCCCC[n+]3cccc([C@@H]4CCCN4C)c3)cc(CCCCC[n+]3cccc([C@@H]4CCCN4C)c3)c2)c1` [GZ558C, 1,3,5-tris-{5-[3-(1-methyl-2-S-pyrrolidinyl)pyridinium]-pentyl}-benzene tribromide] the same measures were 81 ± 2.3% and 7.9 ± 7.1%.
